“Also recorded” adds a separate entry of the source. Read-outs that look alike come from different tables or passages of the source.

The conditions of data set [1]: several trials; cited from earlier work.
Data set [2] deals with CT26 flank tumours. Put plainly: Efficacy study, oral IC87114 and intravenous VVL15, CT26 flank tumours. The data set is classed as in vivo, BALB/c mice. As to conditions: IC87114 50 mg kg^−1 oral gavage three hours before intravenous VVL15 (Group D), vs all other groups.
Data set [3] deals with bone marrow derived macrophages. It is filed as cell-based, BALB/c mice.
Data set [4] deals with CT26 flank tumours. The data set is classed as in vivo, BALB/c mice. The following applies: 75 mg kg^−1 IC87114 three hours before intravenous 1×10^8 PFU VVL15, days 1, 3, 4 and 5, vs vehicle buffer.
In data set [5] the test system is splenocytes. Put plainly: Ex vivo interferon gamma ELISA on splenocytes. It is filed as in vivo, BALB/c mice. The following applies: CT26-bearing mice, IC87114 75 mg kg^−1 oral three hours before intravenous VVL15. As to the method: Interferon gamma assay on splenocytes derived from BALB/c mice bearing CT26 tumours. Fifteen mice were subcutaneously injected in their shaved right flank with 1×10^6 CT26 tumour cells. […] An interferon (IFN) gamma ELISA was performed. Anti-tumour immunity: splenocytes were stimulated with mitomycin treated CT26 cells, there was no statistically significant difference between any of the groups.
FIG. 2E illustrates an ex vivo interferon gamma assay performed on splenocytes derived from BALB/c mice bearing CT26 tumours. […] Thus pre-treatment with IC87114 appears to reduce in magnitude the subsequent development of an anti-viral response. This potentially could mean that aside from the effect IC87114 has on macrophages at an early time point it has a separate more lasting effect that leads to reduced anti-viral immunity and to the establishment of an effective infection of the tumours leading to the observed improvement in efficacy compared to virus alone.

The format of data set [6] is in vivo. The following applies: Rats, oral administration.
Data set [7] concerns Vaccinia virus. As to conditions: in vivo.
Data set [8] has as its system orthotopic 4T1 tumours. In words: Efficacy study, oral IC87114 and intravenous VVL15, orthotopic 4T1 tumours. The data set is classed as in vivo, BALB/c mice. The following applies: 4T1 orthotopic; IC87114 75 mg kg^−1 oral gavage three hours before intravenous VVL15 (Group D); vs all other groups.
For data set [9], the system named is p110 delta protein. The data set is classed as cell-based, BALB/c mice.

`CC[C@H](Nc1ncnc2[nH]cnc12)c1nc2cccc(F)c2c(=O)n1-c1ccccc1` [Idelalisib, 5-Fluoro-3-phenyl-2-[(1S)-1-(7H-purin-6-ylamino)propyl]-4(3H)-quinazolinone]: the toxicities in trials result in [1] was “minimal toxicities”.

Take `Cc1ccccc1-n1c(Cn2cnc3c(N)ncnc32)nc2cccc(C)c2c1=O` [IC87114, 2-[(6-amino-9H-purin-9-yl)methyl]-5-methyl-3-(2-methylphenyl)-4(3H)-quinazolinone]: the “survival (Kaplan-Meier)” value in [2] was “improves survival; also recorded: survived significantly longer than all the other groups; also recorded: survival advantage”; in [8], “improves survival; also recorded: survived significantly longer than all other groups; also recorded: survival advantage”. Moreover, in data set [3] (wild-type macrophages pretreated 2 hours with IC87114, vs untreated wild-type (P<0.05 or P<0.01)), the “viral attachment to wild-type macrophages compared with p110 delta knock in macrophages” value is “statistically significant from untreated wild-type macrophages”. Moreover, in data set [3] (wildtype macrophages pretreated 2 hours with IC87114 vs untreated (P<0.001)), the “amount of VVL15 attached to macrophages (qPCR)” value is “statistically significantly different from untreated macrophages; also recorded: significantly reduces VVL15 attachment to macrophages; also recorded: reduction in viral attachment to macrophages”. In data set [3] (wildtype macrophages pretreated 2 hours with IC87114 vs vehicle buffer), the “Vaccinia virus detected on macrophages (confocal microscopy)” value is recorded as “less Vaccinia virus detected”. The tumour luminescence signal entry in data set [4] is “significantly more signal”; in data set [4] (listed as IC87714), “consistently higher tumour luminescence compared to control”. For the same compound, in data set [5], the “anti-tumour immunity: IFN gamma from splenocytes stimulated with mitomycin treated CT26 cells” value was “no effect on anti-tumour immunity”. In addition, in data set [5] (vs virus alone), the “anti-viral immunity: IFN gamma from splenocytes stimulated with B8R protein” value is recorded as “attenuates anti-viral immunity; also recorded: reduced levels of IFN gamma”. In addition, the “time to maximum plasma concentration” value in data set [6] was 4 h. For the same compound, the “localisation of Vaccinia virus to the spleen” value in data set [7] is “reduces the localisation of Vaccinia virus to the spleen”. Further, the “number of cells immunoreactive for Vaccinia coat protein per ×200 field in spleen” value in data set [7] is recorded as “statistically significant difference between the groups”. Moreover, the “p110 delta protein expression” value in data set [9] is “does not appear to alter the amount of p110 delta protein detected”.

Values taken from patent US11351209B2 (priority 2016, dated 2022).
